Experimental data taken from patent US20220257569A1, “INDOLE-OXADIAZOLE COMPOUNDS AND THEIR THERAPEUTIC USE” (THE GOVERNING COUNCIL OF THE UNIVERSITY OF TORONTO, priority 2018, published 2022).
Entries after “also recorded” stand apart in the source; their conditions may differ.

What was measured:
DATKO mice [1] = assay: Open field test in DATKO mice and WT littermates; assay type: in vivo; conditions: 10 mg/kg; for Locomotor Activity (total distance traveled) / Stereotypy (total stereotypic movements) / Vertical Activity (total): mean±SEM
Source text: DAT1/SLC6A3 gene polymorphism associations have been identified in various psychiatric disorders, including ADHD, BD and SCZ. Also, in line with reduced functioning of the dopamine transporter (DAT) in BD patients, mice without functioning DAT display behavioural abnormalities that model mania observed in BD and that mimic positive symptoms in SCZ. These mice are accepted as a model for assessing the effects of novel small molecules that may have utility in modulating the dopamine dysfunction; deficits respond to both lithium and antipsychotics (Beaulieu et al., 2004; Gainetdinov et al., 1999; Ralph et al., 2001).
(§1) Adult (>P70) GluN1-knockdown (GluN1KD—F1: C571Bl/6J x 129S1/SvlmJ) and DAT-knockout (DATKO—C57Bl/6J), balanced for sex, were treated with either vehicle (1:1:18-Tween80:95% ethanol:saline) or a novel CB1 negative allosteric modulator (CB1 NAM), ABM300, at 10 mg/kg, was tested in behavioural assays, and compared to littermate controls. Locomotor, stereotypic movements and vertical activity were tested, along with anxiety/mania and sensorimotor gating behaviours. All data were analyzed with two- or three-way ANOVA, as appropriate, and corrected for multiple comparisons.
Classically, locomotor output has been used as a gold standard for the measure of dopamine system dysfunction. The role of dopamine in movement control is well defined and, in its simplest forms, testing for hyperactivity is based on the premise that enhanced dopaminergic activity in rodents leads to enhanced motor activity (van den Buuse et al., 2010). Locomotor, stereotypic and vertical activity was recorded using digital activity monitors, quantifying horizontal and vertical activity, along with repetitive behaviour, via infrared beam breaks. GluN1 KD and DATKO display basal hyperactivity, with increases in stereotypic behaviours which can be ameliorated with antipsychotics (Peleg-Raibstein et al., 2008).

DATKO mice [2] = assay: Pre-pulse inhibition (PPI) of acoustic startle response; assay type: in vivo; conditions: 10 mg/kg
Experimental: as §1
Loss of PPI is a common symptom found in SCZ and is widely accepted as an endophenotype. It is commonly considered an “interface” of psychosis and cognition. PPI deficits have been described in other psychiatric diseases; during acute mania in BD (Perry et al., 2001). PPI was measured via automated startle boxes. GluN1 KD and DATKO mice all display deficits in PPI, and this behaviour is responsive to treatment with antipsychotics.

mice fed a HFD diet = assay: Non-alcoholic fatty liver disease (NAFLD) model, high fat diet mice; assay type: in vivo
Experimental: Hepatic triglycerides were measured using an ethanolic-KOH saponification method for lysing liver tissue and hydrolyzing triglyceride molecules to release free glycerol.
Serum ALT, a marker for liver damage, was assessed using an Infinity™ ALT Liquid Stable Reagent (ThermoFisher).
A) A representative vehicle-treated liver is characterized by extensive cytoplasmic clearing indicative of both microvesicular and macrovesicular steatosis. […] Formalin-fixed livers were sectioned at […] and stained using standard H&E staining.
A) A representative vehicle-treated liver is characterized by regions of large ORO-stained vacuoles. […] Frozen OCT-fixed livers were cryosectioned at […] and stained using a conventional ORO staining technique, which stains for neutral lipids.
Diet-induced obese (DIO) mouse models can recapitulate the endocrine and metabolic dysfunction observed in obese humans, and thus serve as ideal preclinical models fortesting novel therapeutic compounds. To induce fatty liver or NAFL, male C57BL/6 mice (n=10 vehicle; n=10 CB1 NAM) are fed a high fat diet (60% calories from fat, TD.06414) for a minimum of 8 weeks starting at 6 weeks of age. Control mice (n=10; vehicle TD.08806) are fed a diet consisting of 10% calories from fat. Mice are weighed weekly to monitor weight gain, and food consumption assessed as the average amount of food consumed per day to determine a potential central effect on appetite suppression. […] Mice are dosed daily with 5 or 10 mg/kg indole-oxadiazole or vehicle (5% ethanol: 5% Tween 80:90% saline) by i.p. administration. After 28 days of administration, glucose tolerance and insulin tolerance tests are conducted on separate days. Blood is collected by terminal cardiac puncture under isoflurane anesthetic followed by cervical dislocation to collect sufficient volumes for the subsequent measurement of multiple analytes (insulin, ALT, triglycerides, adiponectin, leptin). Liver is weighed and collected in formalin (H&E staining for histopathology) and OCT (Oil Red O staining for lipid) or snap frozen for mRNA, protein and the assessment of hepatic triglycerides. Gene expression analyses is conducted to assess the levels of CB1 receptor, FAAH, and various lipogenic and fatty acid transport genes.

cannabinoid CB1 receptor = target: T1, cannabinoid CB1 receptor (Homo sapiens, UniProt P21554); assay: PathHunter β-Arrestin assay (allosteric inhibition of agonist Emax); assay type: cell-based; conditions: FIG. 1; agonist CP55,940; calculated by GraphPad Prism; read-out: IC50 for reduction of Emax of CP55,940
T1 construct: host or cells: HEK293 CB1 β-arrestin cells

[3] = HFD 8 weeks, then 10 mg/kg daily for 4 weeks
[4] = HFD 8 weeks, then 10 mg/kg daily for 4 weeks, non-fasted mice
[5] = mouse model of fatty liver disease

T1 sequence (P21554 whole entry): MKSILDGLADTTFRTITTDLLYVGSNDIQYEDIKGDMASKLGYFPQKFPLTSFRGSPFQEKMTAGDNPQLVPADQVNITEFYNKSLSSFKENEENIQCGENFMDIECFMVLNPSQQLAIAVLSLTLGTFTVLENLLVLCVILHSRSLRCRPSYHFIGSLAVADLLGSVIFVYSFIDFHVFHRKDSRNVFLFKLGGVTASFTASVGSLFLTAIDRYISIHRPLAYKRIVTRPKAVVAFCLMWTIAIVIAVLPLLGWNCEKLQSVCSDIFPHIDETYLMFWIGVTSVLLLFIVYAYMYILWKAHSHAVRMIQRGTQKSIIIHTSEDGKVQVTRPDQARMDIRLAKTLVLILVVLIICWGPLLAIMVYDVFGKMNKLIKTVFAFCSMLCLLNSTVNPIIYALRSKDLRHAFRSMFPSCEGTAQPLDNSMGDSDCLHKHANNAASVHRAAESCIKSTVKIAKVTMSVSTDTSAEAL

SMILES: CCc1c(-c2nnc(Nc3ccccc3)o2)[nH]c2ccc(Cl)cc12 [ABM300, 5-(5-Chloro-3-ethyl-1H-indol-2-yl)-N-phenyl-1,3,4-oxadiazol-2-amine]
- effect on hyperactivity (in words) (DATKO mice [1]; DATKO mice): reduces hyperactivity
- effect on abnormal stereotypic behaviours (in words) (DATKO mice [1]; DATKO mice, open field): reduces abnormal stereotypic behaviours
- effect on abnormal vertical exploration (risk-taking behaviour) (in words) (DATKO mice [1]; DATKO mice, open field): reduces abnormal vertical exploration
- Locomotor Activity (total distance traveled) (DATKO mice [1]; DATKO mice, open field): 13120 ± 1961 cm
- Stereotypy (total stereotypic movements) (DATKO mice [1]; DATKO mice, open field): 900 ± 96
- Vertical Activity (total) (DATKO mice [1]; DATKO mice, open field): 530 ± 101
- Locomotor Activity (total distance traveled) (DATKO mice [1]; WT (C57Bl/6J) mice, open field): 1851 ± 378 cm
- Stereotypy (total stereotypic movements) (DATKO mice [1]; WT (C57Bl/6J) mice, open field): 533 ± 69
- Vertical Activity (total) (DATKO mice [1]; WT (C57Bl/6J) mice, open field): 262 ± 69
- effect on sensorimotor gating deficits, pre-pulse inhibition (in words) (DATKO mice [2]): rescues sensorimotor gating deficits
- Hepatic Triglycerides (mice fed a HFD diet; [3]): 48.9 ± 14.6 mg/g tissue weight
- Serum ALT (ALT activity) (mice fed a HFD diet; [3]): 18.1 ± 4.0 U/L
- Oil Red O (ORO) stained liver sections (in words) (mice fed a HFD diet; [4]): smaller ORO-stained vacuoles
- effect on macrovesicular and microvesicular steatosis, H&E stained liver sections (in words) (mice fed a HFD diet; [4]): reduces the macrovesicular and microvesicular steatosis; also recorded: cytoplasmic clearing characteristic of glycogen accumulation
- effect on levels of triglycerides (in words) (mice fed a HFD diet; [5]): significantly reduces
- effect on serum ALT (in words) (mice fed a HFD diet; [5]): significantly reduces
- melting point: 252 to 254 °C
- IC50 (cannabinoid CB1 receptor): 1 nM
